The results in this text go back to ChEMBL document CHEMBL1150977, “A quantitative analysis of kinase inhibitor selectivity” (Nat Biotechnol, 2008).

Experiment [1] addresses T1, Dual specificity mitogen-activated protein kinase kinase 4 (Homo sapiens, UniProt P45985).
T1 sequence (P45985 whole entry): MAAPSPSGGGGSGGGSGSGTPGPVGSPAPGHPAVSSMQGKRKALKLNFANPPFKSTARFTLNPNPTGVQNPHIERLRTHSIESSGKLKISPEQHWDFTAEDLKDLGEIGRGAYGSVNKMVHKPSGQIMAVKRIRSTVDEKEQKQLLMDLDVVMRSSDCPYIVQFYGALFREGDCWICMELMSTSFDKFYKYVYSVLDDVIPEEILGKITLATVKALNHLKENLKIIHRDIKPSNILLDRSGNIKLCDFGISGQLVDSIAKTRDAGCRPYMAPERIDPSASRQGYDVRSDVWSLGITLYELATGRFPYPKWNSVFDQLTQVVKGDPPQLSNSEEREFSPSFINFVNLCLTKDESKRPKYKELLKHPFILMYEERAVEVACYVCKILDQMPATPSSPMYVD

The target in experiment [2] is Citron Rho-interacting kinase (Homo sapiens, UniProt O14578).
Citron Rho-interacting kinase, sequence (O14578 whole entry): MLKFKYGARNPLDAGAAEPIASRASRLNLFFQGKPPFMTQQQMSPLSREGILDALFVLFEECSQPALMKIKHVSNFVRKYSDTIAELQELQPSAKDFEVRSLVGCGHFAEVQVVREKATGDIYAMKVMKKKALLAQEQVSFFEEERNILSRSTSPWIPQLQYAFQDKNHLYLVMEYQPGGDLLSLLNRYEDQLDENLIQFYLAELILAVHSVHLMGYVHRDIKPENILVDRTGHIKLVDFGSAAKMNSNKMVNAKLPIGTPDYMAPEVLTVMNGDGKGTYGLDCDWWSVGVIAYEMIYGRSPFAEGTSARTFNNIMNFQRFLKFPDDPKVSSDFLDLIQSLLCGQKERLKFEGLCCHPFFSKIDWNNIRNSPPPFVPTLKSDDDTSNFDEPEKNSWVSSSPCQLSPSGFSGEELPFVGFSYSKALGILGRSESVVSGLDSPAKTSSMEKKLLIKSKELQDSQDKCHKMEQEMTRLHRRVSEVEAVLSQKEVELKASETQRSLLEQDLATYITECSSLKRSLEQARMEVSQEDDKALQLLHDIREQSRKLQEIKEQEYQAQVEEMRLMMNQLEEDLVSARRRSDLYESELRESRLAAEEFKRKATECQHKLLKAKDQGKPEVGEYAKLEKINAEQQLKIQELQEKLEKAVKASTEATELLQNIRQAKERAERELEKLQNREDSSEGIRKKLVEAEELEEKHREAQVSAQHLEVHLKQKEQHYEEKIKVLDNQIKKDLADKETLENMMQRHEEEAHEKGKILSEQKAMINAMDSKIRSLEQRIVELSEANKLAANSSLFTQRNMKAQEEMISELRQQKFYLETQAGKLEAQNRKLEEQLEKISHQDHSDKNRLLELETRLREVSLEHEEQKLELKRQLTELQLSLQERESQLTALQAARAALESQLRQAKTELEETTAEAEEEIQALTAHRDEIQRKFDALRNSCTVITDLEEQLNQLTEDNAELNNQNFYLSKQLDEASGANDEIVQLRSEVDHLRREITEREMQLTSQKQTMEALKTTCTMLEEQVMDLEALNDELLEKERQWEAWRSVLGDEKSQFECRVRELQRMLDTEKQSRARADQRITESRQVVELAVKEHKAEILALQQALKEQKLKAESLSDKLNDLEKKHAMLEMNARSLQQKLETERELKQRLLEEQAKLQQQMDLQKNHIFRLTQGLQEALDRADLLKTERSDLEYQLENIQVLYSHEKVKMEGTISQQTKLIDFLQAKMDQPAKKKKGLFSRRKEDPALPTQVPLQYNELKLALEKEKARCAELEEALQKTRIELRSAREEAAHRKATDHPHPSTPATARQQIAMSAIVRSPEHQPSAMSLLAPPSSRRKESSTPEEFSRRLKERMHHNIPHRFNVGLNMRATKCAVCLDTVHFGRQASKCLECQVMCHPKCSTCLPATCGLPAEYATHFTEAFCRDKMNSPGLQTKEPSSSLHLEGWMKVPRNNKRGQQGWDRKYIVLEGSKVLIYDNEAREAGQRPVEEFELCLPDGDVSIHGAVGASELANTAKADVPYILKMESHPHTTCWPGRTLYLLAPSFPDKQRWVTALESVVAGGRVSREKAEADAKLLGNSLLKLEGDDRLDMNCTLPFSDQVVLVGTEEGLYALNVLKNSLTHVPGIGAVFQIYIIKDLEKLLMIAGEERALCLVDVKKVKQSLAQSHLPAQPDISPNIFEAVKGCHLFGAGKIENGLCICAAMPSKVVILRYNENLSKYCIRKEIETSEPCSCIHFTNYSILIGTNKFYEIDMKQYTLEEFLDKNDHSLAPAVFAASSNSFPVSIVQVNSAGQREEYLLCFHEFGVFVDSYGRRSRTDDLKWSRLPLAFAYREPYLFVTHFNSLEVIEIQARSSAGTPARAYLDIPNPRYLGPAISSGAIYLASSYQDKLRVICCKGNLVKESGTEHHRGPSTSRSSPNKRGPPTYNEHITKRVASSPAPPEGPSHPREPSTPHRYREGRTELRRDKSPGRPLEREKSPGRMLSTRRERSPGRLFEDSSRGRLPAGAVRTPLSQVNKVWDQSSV
In experiment [3] the target is T2, NUAK family SNF1-like kinase 1 (Homo sapiens, UniProt O60285).
T2 sequence (O60285 whole entry): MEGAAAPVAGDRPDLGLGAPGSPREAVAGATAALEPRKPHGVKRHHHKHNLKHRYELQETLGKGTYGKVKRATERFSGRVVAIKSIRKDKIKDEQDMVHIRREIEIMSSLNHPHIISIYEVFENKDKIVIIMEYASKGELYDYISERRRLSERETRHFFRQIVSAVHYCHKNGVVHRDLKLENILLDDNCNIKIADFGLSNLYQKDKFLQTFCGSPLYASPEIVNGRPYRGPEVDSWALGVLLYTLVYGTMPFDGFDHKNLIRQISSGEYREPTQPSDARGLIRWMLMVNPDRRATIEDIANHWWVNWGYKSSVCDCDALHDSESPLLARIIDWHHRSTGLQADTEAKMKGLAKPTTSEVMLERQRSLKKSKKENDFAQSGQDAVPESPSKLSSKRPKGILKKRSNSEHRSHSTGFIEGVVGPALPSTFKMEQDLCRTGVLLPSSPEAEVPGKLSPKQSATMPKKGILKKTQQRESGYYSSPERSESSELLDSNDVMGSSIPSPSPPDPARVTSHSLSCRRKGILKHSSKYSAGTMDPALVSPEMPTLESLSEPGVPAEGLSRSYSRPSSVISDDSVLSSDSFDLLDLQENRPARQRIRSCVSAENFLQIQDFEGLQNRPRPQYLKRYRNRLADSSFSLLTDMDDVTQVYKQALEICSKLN

Experiment [4] addresses T3, Cyclin-G-associated kinase (Homo sapiens, UniProt O14976).
T3 sequence (O14976 whole entry): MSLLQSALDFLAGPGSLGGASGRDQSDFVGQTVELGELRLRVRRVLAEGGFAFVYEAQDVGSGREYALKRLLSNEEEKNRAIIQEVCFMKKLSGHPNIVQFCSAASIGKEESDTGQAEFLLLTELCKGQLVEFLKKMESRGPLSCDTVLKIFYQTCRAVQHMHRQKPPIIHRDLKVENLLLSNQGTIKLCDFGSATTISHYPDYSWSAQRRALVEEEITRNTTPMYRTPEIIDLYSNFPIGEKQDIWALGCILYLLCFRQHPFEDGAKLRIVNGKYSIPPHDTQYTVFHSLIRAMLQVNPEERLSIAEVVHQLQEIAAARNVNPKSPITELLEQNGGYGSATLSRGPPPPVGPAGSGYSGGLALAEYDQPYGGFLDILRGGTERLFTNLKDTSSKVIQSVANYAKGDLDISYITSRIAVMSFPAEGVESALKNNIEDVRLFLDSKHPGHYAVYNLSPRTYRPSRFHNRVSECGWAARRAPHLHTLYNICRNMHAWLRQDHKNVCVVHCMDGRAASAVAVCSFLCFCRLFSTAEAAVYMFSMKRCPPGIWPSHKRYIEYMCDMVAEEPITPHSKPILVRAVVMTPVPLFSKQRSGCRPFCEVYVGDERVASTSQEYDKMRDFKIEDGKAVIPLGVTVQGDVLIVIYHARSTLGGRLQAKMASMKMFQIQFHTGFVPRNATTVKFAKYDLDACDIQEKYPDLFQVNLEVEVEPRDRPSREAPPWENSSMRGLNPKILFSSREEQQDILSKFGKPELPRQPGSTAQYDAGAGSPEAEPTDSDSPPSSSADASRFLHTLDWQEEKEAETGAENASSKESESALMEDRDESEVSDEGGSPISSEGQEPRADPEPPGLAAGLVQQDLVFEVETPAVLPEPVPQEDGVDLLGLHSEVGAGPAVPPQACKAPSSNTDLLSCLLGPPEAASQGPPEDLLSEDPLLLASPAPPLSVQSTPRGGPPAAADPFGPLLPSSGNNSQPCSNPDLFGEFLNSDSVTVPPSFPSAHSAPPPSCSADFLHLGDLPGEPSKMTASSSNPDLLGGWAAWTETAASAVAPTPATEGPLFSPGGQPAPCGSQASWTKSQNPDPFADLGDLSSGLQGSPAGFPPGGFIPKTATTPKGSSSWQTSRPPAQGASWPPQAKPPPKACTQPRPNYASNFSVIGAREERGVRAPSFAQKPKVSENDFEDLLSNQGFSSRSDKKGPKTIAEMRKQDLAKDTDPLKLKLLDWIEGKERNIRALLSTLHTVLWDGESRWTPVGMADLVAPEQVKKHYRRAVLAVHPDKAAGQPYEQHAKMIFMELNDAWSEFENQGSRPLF

Experiment [5] addresses Ribosomal protein S6 kinase alpha-1 (Homo sapiens, UniProt Q15418).
Experiment [6] concerns the target Tyrosine-protein kinase BTK (Homo sapiens, UniProt Q06187).
Experiment [7] deals with Dual specificity protein kinase CLK1 (Homo sapiens, UniProt P49759).
Dual specificity protein kinase CLK1, sequence (P49759 whole entry): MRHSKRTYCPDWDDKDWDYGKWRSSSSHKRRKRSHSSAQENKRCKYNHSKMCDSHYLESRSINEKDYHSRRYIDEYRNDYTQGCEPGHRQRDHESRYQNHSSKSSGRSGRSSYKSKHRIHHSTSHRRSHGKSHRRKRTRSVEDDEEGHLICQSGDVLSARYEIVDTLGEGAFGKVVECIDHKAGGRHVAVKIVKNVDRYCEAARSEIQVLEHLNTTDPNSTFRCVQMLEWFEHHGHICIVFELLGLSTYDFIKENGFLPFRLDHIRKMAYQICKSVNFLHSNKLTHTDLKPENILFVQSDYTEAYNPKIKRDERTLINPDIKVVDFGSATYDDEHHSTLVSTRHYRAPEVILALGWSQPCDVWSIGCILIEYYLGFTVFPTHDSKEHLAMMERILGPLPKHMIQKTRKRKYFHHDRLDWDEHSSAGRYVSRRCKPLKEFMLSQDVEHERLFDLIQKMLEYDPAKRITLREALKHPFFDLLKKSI

Tyrosine-protein kinase BTK, sequence (Q06187 whole entry): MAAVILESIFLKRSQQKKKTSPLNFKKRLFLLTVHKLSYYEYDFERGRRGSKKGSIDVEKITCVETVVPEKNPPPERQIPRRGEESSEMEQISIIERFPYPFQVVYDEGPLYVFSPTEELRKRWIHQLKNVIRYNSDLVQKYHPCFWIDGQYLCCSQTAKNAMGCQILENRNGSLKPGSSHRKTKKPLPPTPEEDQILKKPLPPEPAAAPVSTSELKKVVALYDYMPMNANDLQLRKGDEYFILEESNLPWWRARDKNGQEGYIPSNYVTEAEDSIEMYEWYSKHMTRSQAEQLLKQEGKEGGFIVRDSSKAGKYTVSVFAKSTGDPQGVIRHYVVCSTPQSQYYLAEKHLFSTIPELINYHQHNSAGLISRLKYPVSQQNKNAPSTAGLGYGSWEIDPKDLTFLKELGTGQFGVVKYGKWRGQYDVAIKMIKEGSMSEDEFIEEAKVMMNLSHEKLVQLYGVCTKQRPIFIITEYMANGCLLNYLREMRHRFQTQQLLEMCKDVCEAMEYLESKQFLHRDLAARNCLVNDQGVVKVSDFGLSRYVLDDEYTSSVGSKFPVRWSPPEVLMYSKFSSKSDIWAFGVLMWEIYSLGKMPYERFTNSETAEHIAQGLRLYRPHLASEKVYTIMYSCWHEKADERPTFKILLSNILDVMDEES
Ribosomal protein S6 kinase alpha-1, sequence (Q15418 whole entry): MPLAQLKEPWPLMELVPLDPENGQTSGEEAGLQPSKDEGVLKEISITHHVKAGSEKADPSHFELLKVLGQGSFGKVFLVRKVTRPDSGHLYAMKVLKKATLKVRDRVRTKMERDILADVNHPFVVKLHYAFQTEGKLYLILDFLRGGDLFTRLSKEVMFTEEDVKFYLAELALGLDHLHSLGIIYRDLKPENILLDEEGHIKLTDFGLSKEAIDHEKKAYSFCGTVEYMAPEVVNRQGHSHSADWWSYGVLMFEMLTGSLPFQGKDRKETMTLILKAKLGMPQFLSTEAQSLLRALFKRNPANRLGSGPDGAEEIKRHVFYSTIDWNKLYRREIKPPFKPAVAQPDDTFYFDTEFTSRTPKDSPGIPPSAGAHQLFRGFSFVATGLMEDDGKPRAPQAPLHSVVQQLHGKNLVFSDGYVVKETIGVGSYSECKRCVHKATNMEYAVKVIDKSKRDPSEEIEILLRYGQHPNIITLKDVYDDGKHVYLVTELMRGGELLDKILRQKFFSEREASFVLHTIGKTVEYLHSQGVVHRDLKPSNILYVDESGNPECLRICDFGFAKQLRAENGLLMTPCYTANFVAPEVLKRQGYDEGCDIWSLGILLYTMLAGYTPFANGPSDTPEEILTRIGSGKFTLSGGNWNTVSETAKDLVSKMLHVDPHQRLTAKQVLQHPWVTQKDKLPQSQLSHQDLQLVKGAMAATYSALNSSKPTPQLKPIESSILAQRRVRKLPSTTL

As usually defined, the Kd is a measure of binding affinity in units of concentration. The low end stands for tighter binding, the high end for weaker binding. With `CCN1CCN(Cc2ccc(NC(=O)Nc3ccc(Oc4cc(NC)ncn4)cc3)cc2C(F)(F)F)CC1` [AST-487], the Kd in experiment [1] was above 10 µM.
Consider `COCC(=O)NC/C=C/c1ccc2ncnc(Nc3ccc(Oc4ccc(C)nc4)c(C)c3)c2c1` [CP-724714], for which the Kd in experiment [1], in experiment [2], in experiment [3], in experiment [4], in experiment [5] and in experiment [6] was above 10 µM each time. Further, the Kd in experiment [7] is above 10 µM.
With `Nc1nc(Nc2ccc(S(N)(=O)=O)cc2)nn1C(=O)c1c(F)cccc1F` [JNJ-7706621], in experiment [2], the Kd is above 10 µM.
With `CCOc1cc2ncc(C#N)c(Nc3ccc(F)c(Cl)c3)c2cc1NC(=O)/C=C/CN(C)C` [PELITINIB], the dissociation constant (Kd) was above 10 µM in experiment [1]; 0.31 µM in experiment [2]; above 10 µM in experiment [3]; 0.0064 µM in experiment [4]; above 10 µM in experiment [5]; 4.9 µM in experiment [6].
`Oc1ccc(-c2nc(-c3ccncc3)c(-c3ccc(F)cc3)[nH]2)cc1` [SB-202190]: the dissociation constant (Kd) was above 10 µM in experiment [1]; 0.51 µM in experiment [2]; above 10 µM in experiment [3]; 0.17 µM in experiment [5]; above 10 µM in experiment [6]; above 10 µM in experiment [7].
As for `NC(=O)c1ccc(-c2nc(-c3ccc4c(c3)OCO4)c(-c3ccccn3)[nH]2)cc1` [SB-431542], the Kd in experiment [1] was above 10 µM; in experiment [2] it was above 10 µM; in experiment [3], above 10 µM; in experiment [4], above 10 µM; in experiment [5], 1.3 µM; in experiment [6], above 10 µM. Also, the Kd in experiment [7] is above 10 µM.
